CC(C(=O)O)c1ccc2c(c1)[nH]c1ccc(Cl)cc12 (stereo not given)
solubility (mole fraction)
Settings | in acetic acid | in ethylene glycol | in formic acid | in glycerin | in isobutanol | in isopropanol | in n-butanol | in n-octanol | in n-propanol | in propylene glycol
288.15 K | 0.00687 | 0.00349 | 0.000435 | 0.000115 | 0.00942 | 0.0145 | 0.014 | 0.0143 | 0.0157 | 0.0055
293.15 K | 0.00706 | 0.00433 | 0.000547 | 0.000147 | 0.0103 | 0.0179 | 0.0174 | 0.0177 | 0.0195 | 0.0069
298.15 K | 0.00863 | 0.00585 | 0.00074 | 0.000209 | 0.0137 | 0.0267 | 0.0243 | 0.0248 | 0.0315 | 0.00753
303.15 K | 0.00998 | 0.00715 | 0.00116 | 0.000301 | 0.0177 | 0.031 | 0.0283 | 0.0295 | 0.0378 | 0.00936
308.15 K | 0.0126 | 0.00861 | 0.00146 | 0.000437 | 0.0243 | 0.0359 | 0.0346 | 0.035 | 0.0418 | 0.0121
313.15 K | 0.0174 | 0.0117 | 0.00201 | 0.00052 | 0.0287 | 0.0436 | 0.0389 | 0.0391 | 0.0507 | 0.0153
318.15 K | 0.0216 | 0.0168 | 0.00287 | 0.000851 | 0.0357 | 0.048 | 0.0441 | 0.0448 | 0.0598 | 0.0183
323.15 K | 0.0268 | 0.0194 | 0.00388 | 0.00133 | 0.0432 | 0.0601 | 0.0526 | 0.0537 | 0.0743 | 0.0223

From BigSolDB 2.1
